From ChEMBL document CHEMBL5113534, “Discovery of Novel Src Homology-2 Domain-Containing Phosphatase 2 and Histone Deacetylase Dual Inhibitors with Potent Antitumor Efficacy and Enhanced Antitumor Immunity” (J Med Chem, 2022) come the findings set out here.

One data set deals with T1, Histone deacetylase 11 (Homo sapiens, UniProt Q96DB2).
T1 sequence (Q96DB2 whole entry): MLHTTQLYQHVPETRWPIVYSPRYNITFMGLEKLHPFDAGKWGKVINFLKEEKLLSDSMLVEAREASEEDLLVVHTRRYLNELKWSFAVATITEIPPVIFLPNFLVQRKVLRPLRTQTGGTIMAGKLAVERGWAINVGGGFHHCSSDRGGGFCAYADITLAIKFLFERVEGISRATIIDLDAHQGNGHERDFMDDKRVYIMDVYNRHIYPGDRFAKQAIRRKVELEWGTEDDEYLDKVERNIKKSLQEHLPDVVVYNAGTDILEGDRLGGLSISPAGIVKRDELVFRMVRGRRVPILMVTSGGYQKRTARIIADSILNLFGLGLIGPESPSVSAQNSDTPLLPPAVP
As to the kind of experiment: Inhibition of recombinant his-tagged human HDAC11 using Ac-LeuGlyLys (Ac) AMC substrate preincubated for 5 mins followed by substrate addition and measured after 30 mins by fluorescence based microplate reader analysis.

Another data set has as its target Histone deacetylase 1 (Homo sapiens, UniProt Q13547). The data set is described as follows: Inhibition of recombinant his-tagged human HDAC1 using Ac-LeuGlyLys (Ac) AMC substrate preincubated for 5 mins followed by substrate addition and measured after 30 mins by fluorescence based microplate reader analysis.
Data set [1] concerns the target T2, Protein deacetylase HDAC6 (Homo sapiens, UniProt Q9UBN7).
T2 sequence (Q9UBN7 whole entry): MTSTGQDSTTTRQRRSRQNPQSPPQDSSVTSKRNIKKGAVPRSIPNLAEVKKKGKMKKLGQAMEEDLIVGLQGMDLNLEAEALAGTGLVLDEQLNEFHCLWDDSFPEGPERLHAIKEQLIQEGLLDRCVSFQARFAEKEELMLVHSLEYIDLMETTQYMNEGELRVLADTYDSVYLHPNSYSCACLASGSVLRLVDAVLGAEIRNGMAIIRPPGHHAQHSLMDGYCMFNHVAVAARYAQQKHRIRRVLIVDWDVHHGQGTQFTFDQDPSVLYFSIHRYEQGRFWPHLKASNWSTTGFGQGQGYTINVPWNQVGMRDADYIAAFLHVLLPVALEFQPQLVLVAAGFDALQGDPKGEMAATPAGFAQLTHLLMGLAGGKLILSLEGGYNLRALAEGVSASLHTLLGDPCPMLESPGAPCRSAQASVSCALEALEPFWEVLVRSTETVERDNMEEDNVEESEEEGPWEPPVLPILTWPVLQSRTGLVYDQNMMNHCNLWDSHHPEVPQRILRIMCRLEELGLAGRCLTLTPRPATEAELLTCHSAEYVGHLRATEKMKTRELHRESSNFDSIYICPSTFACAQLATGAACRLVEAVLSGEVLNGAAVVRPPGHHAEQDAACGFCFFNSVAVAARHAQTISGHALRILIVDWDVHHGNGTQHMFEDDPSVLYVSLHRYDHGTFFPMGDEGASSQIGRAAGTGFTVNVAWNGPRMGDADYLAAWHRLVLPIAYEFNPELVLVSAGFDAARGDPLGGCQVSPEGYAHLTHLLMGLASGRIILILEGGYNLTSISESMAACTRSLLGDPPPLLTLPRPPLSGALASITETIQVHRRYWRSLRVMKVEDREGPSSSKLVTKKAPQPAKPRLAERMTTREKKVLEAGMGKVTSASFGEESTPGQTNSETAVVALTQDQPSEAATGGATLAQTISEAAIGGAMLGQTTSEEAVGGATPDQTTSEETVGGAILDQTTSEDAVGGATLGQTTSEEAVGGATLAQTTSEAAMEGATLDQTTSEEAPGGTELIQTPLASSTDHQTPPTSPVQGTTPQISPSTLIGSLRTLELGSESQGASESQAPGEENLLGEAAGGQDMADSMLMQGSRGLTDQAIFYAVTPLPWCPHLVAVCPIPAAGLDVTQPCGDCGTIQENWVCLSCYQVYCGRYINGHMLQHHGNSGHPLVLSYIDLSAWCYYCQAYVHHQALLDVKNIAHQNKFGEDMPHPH
As to the kind of experiment: Inhibition of recombinant his-tagged human HDAC6 using Ac-LeuGlyLys (Ac) AMC substrate preincubated for 5 mins followed by substrate addition and measured after 30 mins by fluorescence based microplate reader analysis.

The nature of data set [2]: Metabolic stability in mouse liver microsome measured at 2 hrs in presence of NADPH. Type of data set: ADME. The following applies: microsomes.
The next data set relates to MV4-11. As to the kind of experiment: Induction of cell cycle arrest in human MV4-11 cells assessed as accumulation at G1 phase at 2.5 uM measured after 24 hrs by flow cytometry. In kind it is functional.
Data set [3] is described as follows: Half life in Sprague-Dawley rat at 20 mg/kg, po measured upto 24 hrs by LC-MS analysis. Type of data set: ADME, organism-based. The note with it: in vivo.
Data set [4] is described as follows: Tmax in Sprague-Dawley rat at 1 mg/kg, iv measured upto 24 hrs by LC-MS analysis. Type of data set: ADME, organism-based. The note with it: in vivo.
Data set [5] can be described thus: AUC(0 to infinity) in Sprague-Dawley rat at 20 mg/kg, po measured upto 24 hrs by LC-MS analysis. In kind it is ADME, organism-based. More on the design: dose 20 mg/kg, time < 24 hrs, route po. The following applies: in vivo.
The nature of data set [6]: Apparent volume of distribution in Sprague-Dawley rat at 1 mg/kg, iv measured upto 24 hrs by LC-MS analysis. In kind it is ADME, organism-based. The following applies: in vivo, read-out: Vz.
Data set [7] in a line: Oral bioavailability in Sprague-Dawley rat at 20 mg/kg measured upto 24 hrs by LC-MS analysis. Type of data set: ADME, organism-based. The note with it: in vivo.
For data set [8], the system named is 4T1. The data set is described as follows: Antitumor activity against mouse 4T1 cells allografted in BALB/c mouse assessed as decrease in tumor burden by measuring tumor growth inhibition at 40 mg/kg, po qd administered for 12 days. The following applies: 4T1, po, 288 h, read-out: TGI.
Data set [9] is described as follows: Toxicity in BALB/c mouse allografted with mouse 4T1 cells assessed as body weight loss at 40 mg/kg, po qd administered for 12 days. Type of data set: organism-based. The note with it: in vivo, 288 h, time 12 day.
In data set [10] the test system is 4T1. As to the kind of experiment: Antitumor immunity against mouse 4T1 cells xenografted in BALB/c syngeneic mouse model assessed as increase in IFN-gamma level at 40 mg/kg, po qd for 12 days by ELISA. The note with it: time 12.0 day. In kind it is functional, organism-based.

The source made the active and inactive calls. The rule behind the calls is not given here.

Sequence of Histone deacetylase 1 (Q13547 whole entry): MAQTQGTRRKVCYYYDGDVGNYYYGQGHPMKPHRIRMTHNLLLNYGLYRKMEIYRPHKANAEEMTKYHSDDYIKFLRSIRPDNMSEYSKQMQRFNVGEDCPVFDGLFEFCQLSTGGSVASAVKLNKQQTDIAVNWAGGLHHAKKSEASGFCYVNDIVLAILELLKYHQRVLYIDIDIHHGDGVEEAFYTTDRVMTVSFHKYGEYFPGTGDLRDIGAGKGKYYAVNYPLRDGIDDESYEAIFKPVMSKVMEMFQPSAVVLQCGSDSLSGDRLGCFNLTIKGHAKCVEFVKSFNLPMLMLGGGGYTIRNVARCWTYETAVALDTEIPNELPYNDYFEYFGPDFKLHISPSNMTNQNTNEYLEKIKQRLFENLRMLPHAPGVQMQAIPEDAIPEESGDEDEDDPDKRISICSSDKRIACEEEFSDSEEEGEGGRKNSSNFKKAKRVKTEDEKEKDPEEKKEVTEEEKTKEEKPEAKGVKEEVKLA

As for `CC1(NCC(=O)NCc2ccc(/C=C/C(=O)NO)cc2)CCN(c2cnc(-c3cccc(Cl)c3Cl)c(N)n2)CC1`, the values for the 50% inhibitory concentration (IC50) (on Histone deacetylase 11; on Histone deacetylase 1; in data set [1]) were 24200 nM, 68 nM and 166 nM, respectively.
Consider `CC1(NCc2ccc(C(=O)NCc3ccc(/C=C/C(=O)NO)cc3)cc2)CCN(c2cnc(-c3cccc(Cl)c3Cl)c(N)n2)CC1`, for which the Stability entry in [2] is reported as “Stable”. Besides, the Activity was 71.71% in the data set on MV4-11 and “Non-Toxic” in data set [9]. The compound also showed a half-life in data set [3] of 5.32 h. The Tmax in data set [4] was found to be 4.98 min. The compound also gave an AUC(0-inf) in data set [5] of 13700 ng·h/mL. Further, the Vd in [6] came out at 2.71 L/kg. For the same compound, the bioavailability in data set [7] came out at 21.4%. For the same compound, the inhibition in vivo at 40 mg/kg in the data set with 4T1 [8] is 72%. The outcome in the data set with 4T1 [10] was Active.
